Source: paper PMC7672424 (Nucleic Acids Research, 2020)

Key:
[1] = system: 19AT (DNA, duplex) ACGTCGATTATAGACGAGC/GCTCGTCTATAATCGACGT; assay: CD melting; conditions: 50 mM K+; 10 mM Tris-HCl pH 7.4; 5 µM DNA, 20 µM compound
[2] = system: TTA45 (DNA, G4) GGGTTAGGGTTAGGGTTAGGGTTAGGGTTAGGGTTAGGGTTAGGG; assay: CD melting; conditions: 50 mM K+; 10 mM Tris-HCl pH 7.4; 5 µM DNA, 20 µM compound
[3] = system: c-KIT1; assay: CD melting, DNA stabilization; assay type: binding; conditions: 5 µM DNA, 20 µM BMPQ-1, 10 mM Tris-HCl, 50 mM KCl, pH 7.4
Protocol: CD studies were performed on a Chirascan circular dichroism spectrophotometer (Jasco, Easton, MD, USA). A quartz cuvette with a 1 mm path length was used to record the spectra over a wavelength range of 220–320 nm with a 1 nm bandwidth. All the samples were prepared in buffer containing 10 mM Tris–HCl pH 7.4, 100 mM KCl. To ensure the concentrations of G-quadruplex units to be 20 μM, multiple G-quadruplexes forming oligonucleotides with different concentrations were used (TTA (G1) 20 μM, TTA45 (G2) 10 μM, TTA69 (G3) 6.67 μM, TTA93 (G4) 5 μM, TTA117 (G5) 4 μM, TTA141 (G6) 3.33 μM). The DNA samples were heated at 95°C for 5 min and cooled down slowly to room temperature. 20, 40 and 60 μM BMPQ-1 were mixed with DNAs separately. Melting curves were measured at 295 nm and the range of temperature was 4–95°C.

[4] = system: TTA45; assay: CD melting, DNA stabilization; assay type: binding, human; conditions: 5 µM DNA, 20 µM compound, 10 mM Tris-HCl, 50 mM KCl, pH 7.4
Text: Compounds Structures IC /µM m

[5] = system: BG4 foci (DNA G-quadruplexes) in A549 cells; assay: Immunofluorescence of BG4 and TRF2 foci; assay type: cell-based, human; conditions: A549, 1.5 μM, 24 h
Protocol: The cells (5 × 10^4 cells) were seeded on 35-mm glass-bottomed dishes and grown for 24 h for attachment. Then old medium was replaced by fresh DMEM containing 1.5 μM BMPQ-1 and incubated for 24 h. After washed three times with PBS buffer, the cells were fixed in 4% paraformaldehyde/PBS for 15 min and then permeabilized with 0.3% Triton-X 100/PBS at 37°C for 20 min. Then the cells were blocked with 5% BSA/PBS at 37°C for 1 h. Finally, the cells were incubated with primary antibodies at 37°C for 3 h. After that, the cells were washed six times with blocking buffer, and were then incubated with secondary antibodies at 37°C for 3 h. Finally, the cells were washed six times with PBS buffer again. The digital images were recorded using a confocal laser scanning microscopy (Olympus FV1000) and analyzed with ImageJ software. One hundred nuclei were counted in each group. […]
Figure 2. […] (B) Quantification of the number of γH2AX foci per nucleus in A549 cells treated with or without BMPQ-1. (C) Quantification of the colocalization of γH2AX and TRF2 per nucleus in A549 cells treated with or without BMPQ-1. […] (E) Quantification of the number of BG4 foci per nucleus in A549 cells treated with or without BMPQ-1. (F) Quantification of the colocalized BG4 and TRF2 per nucleus in A549 cells treated with or without BMPQ-1.

[6] = system: A549 cells; assay: Cell cycle analysis by flow cytometry (PI); assay type: cell-based, human; conditions: A549, 3 μM, 24 h; control 10.4%
Protocol: A549 cells treated with BMPQ-1 were harvested and washed in PBS and fixed with 70% ethanol at 4°C overnight. Then, the cells were centrifuged and re-suspended in a staining solution (50 μg/mL propidium iodide (PI), 75 KU/ml RNase A in PBS) for 30 min at room temperature in the dark. The cells were analyzed by flow cytometer (BD FacsAria, USA). For each analysis, 2.0 × 10^4 events were collected.
Figure S9. BMPQ-1 induced A549 cell cycle arrest. (A) The cell cycle analysis of A549 cells after 24 h treatment with BMPQ-1. The cells were collected and stained with propidium iodide (PI). (B) Percentage of A549 cells in different phases of the cell cycle. […]
different from the control. […]

[7] = system: c-KIT1 (DNA, G4) AGGGAGGGCGCTGGGAGGAGGG; assay: CD melting; conditions: 50 mM K+; 10 mM Tris-HCl pH 7.4; 5 µM DNA, 20 µM compound
[8] = system: TBA (DNA, G4) GGTTGGTGTGGTTGG; assay: CD melting; conditions: 50 mM K+; 10 mM Tris-HCl pH 7.4; 5 µM DNA, 20 µM compound
[9] = system: TTA (DNA, G4) GGGTTAGGGTTAGGGTTAGGG; assay: CD melting; conditions: 50 mM K+; 10 mM Tris-HCl pH 7.4; 5 µM DNA, 20 µM compound
[10] = system: TTA; conditions: CD melting; 5 µM DNA, 20 µM compound; 10 mM Tris-HCl, 50 mM KCl, pH 7.4
Protocol: CD studies were performed on a Chirascan circular dichroism spectrophotometer (Jasco, Easton, MD, USA). A quartz cuvette with a 1 mm path length was used to record the spectra over a wavelength range of 220–320 nm with a 1 nm bandwidth. All the samples were prepared in buffer containing 10 mM Tris–HCl pH 7.4, 100 mM KCl. To ensure the concentrations of G-quadruplex units to be 20 μM, multiple G-quadruplexes forming oligonucleotides with different concentrations were used (TTA (G1) 20 μM, TTA45 (G2) 10 μM, TTA69 (G3) 6.67 μM, TTA93 (G4) 5 μM, TTA117 (G5) 4 μM, TTA141 (G6) 3.33 μM). The DNA samples were heated at 95°C for 5 min and cooled down slowly to room temperature. […] Melting curves were measured at 295 nm and the range of temperature was 4–95°C.
a Melting temperature (T ) of 5 µM DNA samples with and without 20 µM BMPQ-1 analogs in 10 mM Tris-HCl
buffer (50 mM KCl, pH 7.4) was determined by circular dichroism spectroscopy, and ΔTm/°C were derived by

[11] = system: TTA57/T5 (DNA, G4) GGGTTAGGGTTAGGGTTAGGGTTATTATTATTATTAGGGTTAGGGTTAGGGTTAGGG; assay: fluorescence titration; conditions: 100 mM K+ (KCl) plus potassium phosphate; 10 mM K2HPO4/KH2PO4 pH 7.0; 3 µM compound, DNA 0-10 µM; weaker than TTA45
[12] = system: A549 cells; assay: Annexin V-FITC/PI apoptosis detection; assay type: cell-based, human; conditions: A549, 3 μM, 24 h
Protocol: The A549 cells treated with BMPQ-1 or DMSO were washed twice with PBS and detected using the annexin V-FITC/PI apoptosis detection kit (DOJINDO, Japan). The cells were pelleted and resuspended in the binding buffer. Annexin V-FITC and PI were added, and the cells were disturbed by gently vortexing the samples prior to incubation for 5 min in the dark. Emitted florescence was quantitated by flow cytometry (BD FacsAria, USA). For each analysis, 2.0 × 10^4 events were collected.
Figure S10. BMPQ-1 induced cell apoptosis of A549. (A) Apoptosis evaluation of A549 cells after 24 h treatment with various concentrations of BMPQ-1. The cells were collected and stained with Annexin V–FITC and PI. Region LL represents the viable cells; LR represents the early apoptotic cells; UR represents the late apoptotic cells; UL represents damaged cells and cell debris.
(B) Percentage of apoptosis in A549 cells. […]

Question: Which ΔTm [1] does the source give for `Cc1ccc(Cn2cc3c(-c4ccc5c(c4)OCO5)nnc-3c3cc4c(cc32)OCO4)cc1` [BMPQ-1] here?
Answer: 1.8 °C

Question: What about the ΔTm [2] of the same compound?
Answer: 14.6 °C

Question: And the “ΔTm (°C) c-KIT1” value [3]?
Answer: 6.6 °C

Question: And the “ΔTm (°C) TTA45” value [4]?
Answer: 14.6 °C

Question: And the “amount of BG4 foci in the nucleus” value [5]?
Answer: significant increase

Question: What about the “amount of co-localized BG4 and TRF2 foci” value [5] of the same compound?
Answer: significantly increased

Question: What about the “percentage of G2/M phase” value [6] of the same compound?
Answer: 17.8%

Question: And the ΔTm [7]?
Answer: 6.6 °C

Question: And the ΔTm [8]?
Answer: 4.7 °C

Question: And the ΔTm [9]?
Answer: 8.4 °C

Question: What about the “ΔTm (°C) TTA” value [10] of the same compound?
Answer: 8.4 °C

Question: And the binding [11]?
Answer: yes

Question: And the “population of apoptotic cells” value [12]?
Answer: approximately 60%
